Test results as given in patent US8987473B2, “Ring-fused compound” (Sato Pharmaceutical Co., Ltd., priority 2011, dated 2015).

The compounds below were run against human URAT1 (Homo sapiens (Human), UniProt Q96S37) (assay: Test for uric acid transport inhibition using human URAT1 expression cell). Conditions: human URAT1 stable expression CHO cell; 14C-labeled uric acid 38 μM final concentration; incorporation at room temperature for 5 minutes; 100% window defined with benzbromarone 100 μM; read-out: URAT1 Inhibitory Activity (IC50).
Format: cell-based
Procedure: In this Example, it was evaluated whether the Example compound has the URAT1 inhibitory activity.
Human URAT1 full-length cDNA was introduced to an expression vector pcDNA5/FRT/V5-His TOPO (registered trademark) (Invitrogen Corporation). The obtained expression plasmid was introduced to Chinese hamster ovary cell (hereinafter referred to as the CHO cell) by the liposome method using Lipofectamine LTX (Invitrogen), and cultured in a selection medium including hygromycin, whereby to prepare human URAT1 stable expression cell.
The human URAT1 expression CHO cell was cultured using D-MEM/F-12 (1:1) mixed medium including 10% bovine fetal serum and hygromycin at 37° C. in the presence of 5% CO2. The cells were seeded onto a 96 well plate (Corning Incorporated) in 0.8×10^5 cells/well, and after 24 hours, the test for uric acid transport inhibition below was performed.
The medium was removed by aspiration, and then the cells were washed once with an assay buffer including 125 mM of sodium gluconate, 4.8 mM of potassium gluconate, 1.2 mM of potassium dihydrogen phosphate, 1.2 mM of magnesium sulfate, 1.3 mM of calcium gluconate and 5.6 mM of glucose. 50 μL assay buffer including the test compound in various concentrations was added, and further 50 μL assay buffer including a radioactive ligand (uric acid labeled with ^14C; 38 μM final concentration) was added, and incorporation reaction was performed at room temperature for 5 minutes. Immediately after completion of the reaction, the reaction mixture was washed twice with 100 μL ice-cold assay buffer, and 100 μL of 0.1 N sodium hydroxide was added. The reaction mixture was stirred to lyse the cells, and 4 mL Hionic-Fluor (Packard BioScience CO) was added, and then the radioactivity was measured with a liquid scintillation counter (Beckman Coulter, Inc. and Packard BioScience CO).
The radioactivity when each concentration of the test compound was added (uric acid incorporation activity, %) was calculated in which the difference of the radioactivity when the test compound was not added (DMSO added), and the radioactivity when a positive control compound, benzbromarone (known URAT1 inhibitor) was added in 100 μM, was taken as 100%, and the concentration of the test compound when the uric acid incorporation activity was inhibited to 50% (IC50) was obtained.

Sequence of human URAT1 (Q96S37 whole entry): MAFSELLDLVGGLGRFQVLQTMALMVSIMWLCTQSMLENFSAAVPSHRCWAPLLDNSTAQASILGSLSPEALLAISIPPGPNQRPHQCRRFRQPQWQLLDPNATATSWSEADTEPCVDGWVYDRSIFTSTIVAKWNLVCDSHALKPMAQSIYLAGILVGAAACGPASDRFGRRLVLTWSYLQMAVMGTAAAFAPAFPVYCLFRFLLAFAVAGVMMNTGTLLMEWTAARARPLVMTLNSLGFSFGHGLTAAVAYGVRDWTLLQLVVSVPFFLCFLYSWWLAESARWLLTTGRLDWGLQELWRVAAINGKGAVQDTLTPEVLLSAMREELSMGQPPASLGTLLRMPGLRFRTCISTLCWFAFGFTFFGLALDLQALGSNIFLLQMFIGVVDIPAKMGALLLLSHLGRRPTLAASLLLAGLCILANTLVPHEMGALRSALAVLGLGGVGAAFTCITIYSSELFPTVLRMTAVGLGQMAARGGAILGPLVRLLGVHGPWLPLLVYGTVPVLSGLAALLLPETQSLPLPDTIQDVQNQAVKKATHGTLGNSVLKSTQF

IC50 [nM]	SMILES
80	CCc1nn(Cc2c(C)cccc2Cl)c2cc(C(=O)O)cnc12 [Example 170, 1-(2-chloro-6-methylbenzyl)-3-ethyl-1H-pyrazolo[4,3-b]pyridine-6-carboxylic acid]
52	CCc1nn(Cc2c(Cl)cccc2Cl)c2cc(-c3nnn[nH]3)cnc12 [Example 171, 1-(2,6-dichlorobenzyl)-3-ethyl-6-(1H-tetrazole-5-yl)-1H-pyrazolo[4,3-b]pyridine]
163	Clc1cccc(Cl)c1Cn1nc(Cl)c2ncc(-c3nnn[nH]3)cc21 [Example 175, 3-chloro-1-(2,6-dichlorobenzyl)-6-(1H-tetrazole-5-yl)-1H-pyrazolo[4,3-b]pyridine]
15	Cc1nn(Cc2c(Cl)cccc2Cl)c2cc(C(F)(F)C(=O)O)ccc12 [Example 183, [1-(2,6-dichlorobenzyl)-3-methyl-1H-indazole-6-yl]difluoroacetic acid]

Second part, the compound before the results:

SMILES	IC50 [nM]
O=C(O)c1cnc2c(Cl)nn(Cc3c(Cl)cccc3Cl)c2c1 [Example 172, 3-chloro-1-(2,6-dichlorobenzyl)-1H-pyrazolo[4,3-b]pyridine-6-carboxylic acid]	162
Cc1cccc(Cl)c1Cn1nc(Cl)c2ncc(C(=O)O)cc21 [Example 174, 3-chloro-1-(2-chloro-6-methylbenzyl)-1H-pyrazolo[4,3-b]pyridine-6-carboxylic acid]	148
Cc1cccc(Cl)c1Cn1nc(Cl)c2ncc(-c3nnn[nH]3)cc21 [Example 177, 3-chloro-1-(2-chloro-6-methylbenzyl)-6-(1H-tetrazole-5-yl)-1H-pyrazolo[4,3-b]pyridine]	104
CCc1nn(Cc2c(Cl)cccc2Cl)c2cc(-c3nnn[nH]3)ccc12 [Example 182, 1-(2,6-dichlorobenzyl)-3-ethyl-6-(1H-tetrazole-5-yl)-1H-indazole]	52
Cc1nn(Cc2c(Cl)cccc2C2CC2)c2cc(CCC(=O)O)ccc12 [Example 185, 3-[1-(2-chloro-6-cyclopropylbenzyl)-3-methyl-1H-indazole-6-yl]propionic acid]	17
Cc1cccc(C)c1Cn1c(=O)n(C(C)C)c2ccc(C(=O)O)cc21 [Example 186, 3-(2,6-dimethylbenzyl)-1-isopropyl-2-oxo-2,3-dihydro-1H-benzimidazole-5-carboxylic acid]	165
